Reference: patent US20240041832A1, “METHODS AND COMPOSITIONS FOR TREATING EYE DISEASES” (JENIVISION INC., priority 2021, published 2024)

How the values were obtained:
[1] = Biodistribution of Beta-Carotene after periorbital skin administration (Example 4); format: in vivo, cynomolgus monkeys; details: for concentration at 3 h / concentration at 0.5 h / concentration at 6 h / concentration at 24 h: cynomolgus monkey, topical; for concentration at 3 h: 507.6 μg/left eye
Experimental: [The procedure below names another target; the source lists this target under the same test.] (§1) This is supported by results obtained with a markedly different compound docosahexaenoic acid (DHA), which are shown in Table 2. An oil solution comprising 14.85 mg/mL β-Carotene+198.02 mg/ml DHA in linoleic acid was administered to one eye (OD) by circumferential topical application to the periorbital skin that surrounds the anterior portion of the globe. Blood samples (1 mL) and were collected at 0, 0.5, 2, 6, and 24 hours after a single administration to the periorbital skin of the right eye (OD) At each of the above pre-designated time points, one animal was euthanized after blood collection and selected eye tissue samples were collected from both eyes. The following representative tissues were collected; upper eyelid, cornea, retina, and vitreous humor. DHA concentrations in the samples were determined by the LC-MS/MS method. The DHA was administered via NIODP at the dose of 6775.1±92.5 μg per eye (mean±SEM), to the left eye of monkeys in the pharmacokinetics and biodistribution study. Again, for convenience of sample processing, only upper eyelids were collected. Substantial quantities of DHA (>10 μg/g) remained in the upper eyelid/periorbital region, retina, and cornea, at all tested time points of 0.5, 3, 6 and 24-hour post dosing. […] Compared to the BLQ baseline, plasma concentrations of DHA were between 1.2 and 3.1 μg/ml, equivalent to […] (MW 328.5) via NIODP. The plasma Cmax was at 0.5 hours post-dose.
Thus, not all compounds are readily uptaken and distributed to the posterior area of the eye.

[2] = Biodistribution of DHA after periorbital skin administration (Example 4); format: in vivo, cynomolgus monkeys; details: for concentration at 0.5 h / concentration at 24 h / concentration at 3 h / concentration at 6 h: cynomolgus monkey, topical; for concentration at 0.5 h: 6567.89 μg/left eye; for concentration at 24 h: 6746.51 μg/left eye; for concentration at 3 h: 6768.26 μg/left eye; for concentration at 6 h: 7017.66 μg/left eye
Experimental: as §1

[3] = 0.5 h, 492.59 μg/left eye periorbital skin
[4] = 3 h, 507.60 μg/left eye periorbital skin
[5] = 6 h, 526.32 μg/left eye periorbital skin
[6] = 24 h, 505.99 μg/left eye periorbital skin
[7] = 0.5 h, 6567.89 μg/left eye periorbital skin
[8] = 3 h, 6768.26 μg/left eye periorbital skin
[9] = 6 h, 7017.66 μg/left eye periorbital skin
[10] = 24 h, 6746.51 μg/left eye periorbital skin

CC1=C(/C=C/C(C)=C/C=C/C(C)=C/C=C/C=C(C)/C=C/C=C(C)/C=C/C2=C(C)CCCC2(C)C)C(C)(C)CCC1 [Beta-Carotene, β-Carotene]
% of administered dose, Left cornea [1, 3]: 0.000% | % of administered dose, Left retina [1, 3]: 0.000% | % of administered dose, Left upper eyelid [1, 3]: 0.19% | % of administered dose, Left vitreous humor [1, 3]: 0.000% | Drug Concentration in Plasma ([1]; 0.5 h, 492.59 μg/left eye periorbital skin, animal 101): BLQ | % of administered dose, Left cornea [1, 4]: 0.000% | % of administered dose, Left retina [1, 4]: 0.000% | % of administered dose, Left upper eyelid [1, 4]: 0.44% | % of administered dose, Left vitreous humor [1, 4]: 0.000% | Drug Concentration in Plasma ([1]; 3 h, 507.60 μg/left eye periorbital skin, animal 102): BLQ | % of administered dose, Left cornea [1, 5]: 0.000% | % of administered dose, Left retina [1, 5]: 0.000% | % of administered dose, Left upper eyelid [1, 5]: 0.000% | % of administered dose, Left vitreous humor [1, 5]: 0.000% | Drug Concentration in Plasma ([1]; 6 h, 526.32 μg/left eye periorbital skin, animal 103): BLQ | % of administered dose, Left cornea [1, 6]: 0.000% | % of administered dose, Left retina [1, 6]: 0.000% | % of administered dose, Left upper eyelid [1, 6]: 0.000% | % of administered dose, Left vitreous humor [1, 6]: 0.000% | Drug Concentration in Plasma ([1]; 24 h, 505.99 μg/left eye periorbital skin, animal 104): BLQ | uptake and biodistribution following periorbital administration ([1]; compared with DHA in the same formulation): not as readily uptaken and biodistributed | concentration at 3 h ([1]; cornea, 3 h, 507.60 μg/left eye periorbital skin, read-out: Drug Concentration in Tissue, Cornea): 0 ng/g | concentration at 0.5 h ([1]; cornea, 0.5 h, 492.59 μg/left eye periorbital skin, read-out: Drug Concentration in Tissue, Cornea): 0 ng/g | concentration at 6 h ([1]; cornea, 6 h, 526.32 μg/left eye periorbital skin, read-out: Drug Concentration in Tissue, Cornea): 0 ng/g | concentration at 24 h ([1]; cornea, 24 h, 505.99 μg/left eye periorbital skin, read-out: Drug Concentration in Tissue, Cornea): 0 ng/g | concentration at 3 h ([1]; retina, 3 h, 507.60 μg/left eye periorbital skin, read-out: Drug Concentration in Tissue, Retina): 0 ng/g | concentration at 0.5 h ([1]; retina, 0.5 h, 492.59 μg/left eye periorbital skin, read-out: Drug Concentration in Tissue, Retina): 0 ng/g | concentration at 6 h ([1]; retina, 6 h, 526.32 μg/left eye periorbital skin, read-out: Drug Concentration in Tissue, Retina): 0 ng/g | concentration at 24 h ([1]; retina, 24 h, 505.99 μg/left eye periorbital skin, read-out: Drug Concentration in Tissue, Retina): 0 ng/g | concentration at 3 h ([1]; upper eyelid, 3 h, 507.60 μg/left eye periorbital skin, read-out: Drug Concentration in Tissue, Upper eyelid): 36000 ng/g | concentration at 0.5 h ([1]; upper eyelid, 0.5 h, 492.59 μg/left eye periorbital skin, read-out: Drug Concentration in Tissue, Upper eyelid): 12600 ng/g | concentration at 6 h ([1]; upper eyelid, 6 h, 526.32 μg/left eye periorbital skin, read-out: Drug Concentration in Tissue, Upper eyelid): 0 ng/g | concentration at 24 h ([1]; upper eyelid, 24 h, 505.99 μg/left eye periorbital skin, read-out: Drug Concentration in Tissue, Upper eyelid): 0 ng/g | concentration at 3 h ([1]; vitreous humor, 3 h, 507.60 μg/left eye periorbital skin, read-out: Drug Concentration in Tissue, Vitreous humor): 0 ng/g | concentration at 0.5 h ([1]; vitreous humor, 0.5 h, 492.59 μg/left eye periorbital skin, read-out: Drug Concentration in Tissue, Vitreous humor): 0 ng/g | concentration at 6 h ([1]; vitreous humor, 6 h, 526.32 μg/left eye periorbital skin, read-out: Drug Concentration in Tissue, Vitreous humor): 0 ng/g | concentration at 24 h ([1]; vitreous humor, 24 h, 505.99 μg/left eye periorbital skin, read-out: Drug Concentration in Tissue, Vitreous humor): 0 ng/g

CC/C=C\C/C=C\C/C=C\C/C=C\C/C=C\C/C=C\CCC(=O)O [DHA, docosahexaenoic acid]
maximum in retina ([2]; 0.5-hour post dosing): 111 µg/g | % of administered dose, Left cornea [2, 7]: 0.03% | % of administered dose, Left retina [2, 7]: 0.04% | % of administered dose, Left upper eyelid [2, 7]: 0.42% | % of administered dose, Left vitreous humor [2, 7]: 0.00% | Drug Concentration in Plasma ([2]; 0.5 h, 6567.89 μg/left eye periorbital skin, animal 101): 2160 ng/mL | % of administered dose, Left cornea [2, 8]: 0.01% | % of administered dose, Left retina [2, 8]: 0.04% | % of administered dose, Left upper eyelid [2, 8]: 0.38% | % of administered dose, Left vitreous humor [2, 8]: 0.00% | Drug Concentration in Plasma ([2]; 3 h, 6768.26 μg/left eye periorbital skin, animal 102): 3130 ng/mL | % of administered dose, Left cornea [2, 9]: 0.01% | % of administered dose, Left retina [2, 9]: 0.01% | % of administered dose, Left upper eyelid [2, 9]: 0.01% | % of administered dose, Left vitreous humor [2, 9]: 0.00% | Drug Concentration in Plasma ([2]; 6 h, 7017.66 μg/left eye periorbital skin, animal 103): 2110 ng/mL | % of administered dose, Left cornea [2, 10]: 0.02% | % of administered dose, Left retina [2, 10]: 0.03% | % of administered dose, Left upper eyelid [2, 10]: 0.02% | % of administered dose, Left vitreous humor [2, 10]: 0.00% | Drug Concentration in Plasma ([2]; 24 h, 6746.51 μg/left eye periorbital skin, animal 104): 1150 ng/mL | DHA in vitreous humor ([2]; LLOQ 0.5 μg/ml): below the limit of quantification (BLQ) | DHA in upper eyelid/periorbital region, retina and cornea ([2]; all tested time points of 0.5, 3, 6 and 24-hour, NIODP 6775.1±92.5 μg per eye): > 10 µg/g | concentration at 0.5 h ([2]; left cornea, 0.5 h, 6567.89 μg/left eye periorbital skin, read-out: Drug Concentration in Tissue, Left cornea): 66300 ng/g | concentration at 24 h ([2]; left cornea, 24 h, 6746.51 μg/left eye periorbital skin, read-out: Drug Concentration in Tissue, Left cornea): 25900 ng/g | concentration at 3 h ([2]; left cornea, 3 h, 6768.26 μg/left eye periorbital skin, read-out: Drug Concentration in Tissue, Left cornea): 21600 ng/g | concentration at 6 h ([2]; left cornea, 6 h, 7017.66 μg/left eye periorbital skin, read-out: Drug Concentration in Tissue, Left cornea): 22300 ng/g | concentration at 0.5 h ([2]; left retina, 0.5 h, 6567.89 μg/left eye periorbital skin, read-out: Drug Concentration in Tissue, Left retina): 111000 ng/g | concentration at 24 h ([2]; left retina, 24 h, 6746.51 μg/left eye periorbital skin, read-out: Drug Concentration in Tissue, Left retina): 47300 ng/g | concentration at 3 h ([2]; left retina, 3 h, 6768.26 μg/left eye periorbital skin, read-out: Drug Concentration in Tissue, Left retina): 66700 ng/g | concentration at 6 h ([2]; left retina, 6 h, 7017.66 μg/left eye periorbital skin, read-out: Drug Concentration in Tissue, Left retina): 78600 ng/g | concentration at 0.5 h ([2]; left upper eyelid, 0.5 h, 6567.89 μg/left eye periorbital skin, read-out: Drug Concentration in Tissue, Left upper eyelid): 381000 ng/g | concentration at 24 h ([2]; left upper eyelid, 24 h, 6746.51 μg/left eye periorbital skin, read-out: Drug Concentration in Tissue, Left upper eyelid): 16200 ng/g | concentration at 3 h ([2]; left upper eyelid, 3 h, 6768.26 μg/left eye periorbital skin, read-out: Drug Concentration in Tissue, Left upper eyelid): 420000 ng/g | concentration at 6 h ([2]; left upper eyelid, 6 h, 7017.66 μg/left eye periorbital skin, read-out: Drug Concentration in Tissue, Left upper eyelid): 10700 ng/g | concentration at 0.5 h ([2]; left vitreous humor, 0.5 h, 6567.89 μg/left eye periorbital skin, BLQ given 0, read-out: Drug Concentration in Tissue, Left vitreous humor): 0 ng/g | concentration at 24 h ([2]; left vitreous humor, 24 h, 6746.51 μg/left eye periorbital skin, BLQ given 0, read-out: Drug Concentration in Tissue, Left vitreous humor): 0 ng/g | concentration at 3 h ([2]; left vitreous humor, 3 h, 6768.26 μg/left eye periorbital skin, BLQ given 0, read-out: Drug Concentration in Tissue, Left vitreous humor): 0 ng/g | concentration at 6 h ([2]; left vitreous humor, 6 h, 7017.66 μg/left eye periorbital skin, BLQ given 0, read-out: Drug Concentration in Tissue, Left vitreous humor): 0 ng/g | concentration at 0.5 h ([2]; plasma, 0.5 h, 6567.89 μg/left eye periorbital skin, animal 101, read-out: Drug Concentration in Plasma): 2200 ng/mL | concentration at 24 h ([2]; plasma, 24 h, 6746.51 μg/left eye periorbital skin, animal 104, read-out: Drug Concentration in Plasma): 1200 ng/mL | concentration at 3 h ([2]; plasma, 3 h, 6768.26 μg/left eye periorbital skin, animal 102, read-out: Drug Concentration in Plasma): 3100 ng/mL | concentration at 6 h ([2]; plasma, 6 h, 7017.66 μg/left eye periorbital skin, animal 103, read-out: Drug Concentration in Plasma): 2100 ng/mL | dose gradient via NIODP ([2]; periorbital skin): eyelid≈retina>cornea>>vitreous humor=0
